These results are taken from patent US8532742B2, “System and method for simultaneous 3DPR device tracking and imaging under MR-guidance for therapeutic endovascular interventions” (Wisconsin Alumni Research Foundation, priority 2006, dated 2013).

Series [1] is described as follows: Diffusion of a fluorescent probe in swollen gelatin gel by FRAP. It is filed as physicochemical. As to conditions: coating thickness 60 μm, diffusion coefficient 9×10-12 m2s-1. An excerpt: To assess the stability of DTPA[Gd(III)] in the gelatin coating, the diffusion of a fluorescence probe in gelatin was studied by the technique of fluorescence recovery after photobleaching (FRAP). The instrument and data analysis scheme are described in Kim, S. H. and Yu, H., J. Phys. Chem. 1992, 96, 4034, which is hereby fully incorporated by reference. Fluorescein was used as the fluorescence probe due, in part, to its molecular size being roughly the same as that of DTPA[Gd(III)]. The focus of the study was to examine the possible retardation effects of gelatin concentration and cross-link density on the diffusion, which was determined at room temperature, i.e., below the gel point of gelatin. The diffusion of fluorescein probe slows down with the increase of gelatin concentration. The diffusion coefficient decreases from 1.5×10-10 to 9×10-12 […]-1 when the concentration of gelatin increases from 9% to 40%. […] Accordingly, the probe diffusion is more likely controlled by the concentration of gelatin rather than the cross-link density. On the other hand, the cross-link density may determine the swelling ratio of gelatin, i.e., the concentration of gelatin in aqueous solution. […]

Series [2] is described as follows: MR visibility test of gelatin/DTPA[Gd(III)] coating on PE rod in saline and yogurt (Example 14). The conditions noted are these: soaked in water for 12 hours before MRI test. Here is the method:
Samples having the above formulations were transferred to a glass tube and kept in a water bath at 35° C. A bare PE rod (5 cm in length) was then dipped into the solution, and then removed. The rod was then cooled to room temperature to allow chill-setting of the gelatin solution and to form the coating on the rod surface. The same procedure was repeated to overcoat additional layers of gel. The final dry thickness of gel-coating was about 60 μm.
The gelatin coatings were dried in air while being chemically cross-linked by BVSM. The dried and cross-linked samples were then soaked in distilled water for 12 hours. Soaking each sample in distilled water may remove the DTPA[Gd(III)] that was not physically or chemically constrained by the cross-linked network of gelatin overcoat. Because the DTPA[Gd(III)] complexes were not chemically linked to the gelatin chains, most of them would be expected to diffuse out of the coating when soaked in water, whereas some of DTPA[Gd(III)] may be confined by the crystal domains in gelatin or by hydrogen bonding between gelatin chains and DTPA. In any event, after the soaking, the gelatin coating was dried again in air before MRI test.
The MR visibility of the samples prepared as outlined above, was tested in two media: saline and yogurt. […]

Structures are written as SMILES.

In the case of `O=C(O)CN(CCN(CC(=O)O)CC(=O)O)CCN(CC(=O)O)CC(=O)O` [DTPA, diethylenetriaminepentaacetic acid], the “time to diffuse out of the gelatin coating” value in series [1] is listed as “about 67 seconds”.

With `O=C([O-])CN(CCN(CC(=O)[O-])CC(=O)O)CCN(CC(=O)[O-])CC(=O)O.[Gd+3]` [DTPA[Gd(III)], gadolinium-diethylene triamine pentaacetic acid], the “retention of complex in gelatin gel after soaking” value in series [2] was “some fraction of DTPA[Gd(III)] remained in the gel”.
